Counter-ions that a name gives are not always drawn.
Tests used:
ATM = ATM (Homo sapiens (Human), UniProt Q13315); experiment: ATM in Cell Western Assay (pKAP1 in etoposide-treated MCF-7 cells); type: cell-based
Summary of the method: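 After paraformaldehyde fixation and Triton X-100 permeabilization, immunostained plates were read by infrared scanning (ODYSSEY CLx). Compound was given as 10 doses, 3-fold dilutions from a 1 μM final top concentration.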

DNA-PK = DNA-PK (Homo sapiens (Human), UniProt P78527); experiment: DNA-PK Enzyme-Linked Immunosorbent Assay (phosphorylation of GST-p53 (1-101) peptide); type: biochemical; settings: ELISA
Summary of the method: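 Inhibition measured by 450 nm absorbance after HRP/TMB detection of phospho-Ser15 on immobilized GST-p53 (1-101). The kinase reaction used 0.1 μg/mL DNA-PK and 20 μM ATP, 1 h at 25 °C. Ten 3-fold compound dilutions, top final concentration 100 nM.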

[1] = pKAP1 in etoposide-treated MCF-7 cells
[2] = MCF-7 cells, etoposide 100 μM, 1 hr, pKAP1 readout

Chain of ATM (Q13315 whole entry): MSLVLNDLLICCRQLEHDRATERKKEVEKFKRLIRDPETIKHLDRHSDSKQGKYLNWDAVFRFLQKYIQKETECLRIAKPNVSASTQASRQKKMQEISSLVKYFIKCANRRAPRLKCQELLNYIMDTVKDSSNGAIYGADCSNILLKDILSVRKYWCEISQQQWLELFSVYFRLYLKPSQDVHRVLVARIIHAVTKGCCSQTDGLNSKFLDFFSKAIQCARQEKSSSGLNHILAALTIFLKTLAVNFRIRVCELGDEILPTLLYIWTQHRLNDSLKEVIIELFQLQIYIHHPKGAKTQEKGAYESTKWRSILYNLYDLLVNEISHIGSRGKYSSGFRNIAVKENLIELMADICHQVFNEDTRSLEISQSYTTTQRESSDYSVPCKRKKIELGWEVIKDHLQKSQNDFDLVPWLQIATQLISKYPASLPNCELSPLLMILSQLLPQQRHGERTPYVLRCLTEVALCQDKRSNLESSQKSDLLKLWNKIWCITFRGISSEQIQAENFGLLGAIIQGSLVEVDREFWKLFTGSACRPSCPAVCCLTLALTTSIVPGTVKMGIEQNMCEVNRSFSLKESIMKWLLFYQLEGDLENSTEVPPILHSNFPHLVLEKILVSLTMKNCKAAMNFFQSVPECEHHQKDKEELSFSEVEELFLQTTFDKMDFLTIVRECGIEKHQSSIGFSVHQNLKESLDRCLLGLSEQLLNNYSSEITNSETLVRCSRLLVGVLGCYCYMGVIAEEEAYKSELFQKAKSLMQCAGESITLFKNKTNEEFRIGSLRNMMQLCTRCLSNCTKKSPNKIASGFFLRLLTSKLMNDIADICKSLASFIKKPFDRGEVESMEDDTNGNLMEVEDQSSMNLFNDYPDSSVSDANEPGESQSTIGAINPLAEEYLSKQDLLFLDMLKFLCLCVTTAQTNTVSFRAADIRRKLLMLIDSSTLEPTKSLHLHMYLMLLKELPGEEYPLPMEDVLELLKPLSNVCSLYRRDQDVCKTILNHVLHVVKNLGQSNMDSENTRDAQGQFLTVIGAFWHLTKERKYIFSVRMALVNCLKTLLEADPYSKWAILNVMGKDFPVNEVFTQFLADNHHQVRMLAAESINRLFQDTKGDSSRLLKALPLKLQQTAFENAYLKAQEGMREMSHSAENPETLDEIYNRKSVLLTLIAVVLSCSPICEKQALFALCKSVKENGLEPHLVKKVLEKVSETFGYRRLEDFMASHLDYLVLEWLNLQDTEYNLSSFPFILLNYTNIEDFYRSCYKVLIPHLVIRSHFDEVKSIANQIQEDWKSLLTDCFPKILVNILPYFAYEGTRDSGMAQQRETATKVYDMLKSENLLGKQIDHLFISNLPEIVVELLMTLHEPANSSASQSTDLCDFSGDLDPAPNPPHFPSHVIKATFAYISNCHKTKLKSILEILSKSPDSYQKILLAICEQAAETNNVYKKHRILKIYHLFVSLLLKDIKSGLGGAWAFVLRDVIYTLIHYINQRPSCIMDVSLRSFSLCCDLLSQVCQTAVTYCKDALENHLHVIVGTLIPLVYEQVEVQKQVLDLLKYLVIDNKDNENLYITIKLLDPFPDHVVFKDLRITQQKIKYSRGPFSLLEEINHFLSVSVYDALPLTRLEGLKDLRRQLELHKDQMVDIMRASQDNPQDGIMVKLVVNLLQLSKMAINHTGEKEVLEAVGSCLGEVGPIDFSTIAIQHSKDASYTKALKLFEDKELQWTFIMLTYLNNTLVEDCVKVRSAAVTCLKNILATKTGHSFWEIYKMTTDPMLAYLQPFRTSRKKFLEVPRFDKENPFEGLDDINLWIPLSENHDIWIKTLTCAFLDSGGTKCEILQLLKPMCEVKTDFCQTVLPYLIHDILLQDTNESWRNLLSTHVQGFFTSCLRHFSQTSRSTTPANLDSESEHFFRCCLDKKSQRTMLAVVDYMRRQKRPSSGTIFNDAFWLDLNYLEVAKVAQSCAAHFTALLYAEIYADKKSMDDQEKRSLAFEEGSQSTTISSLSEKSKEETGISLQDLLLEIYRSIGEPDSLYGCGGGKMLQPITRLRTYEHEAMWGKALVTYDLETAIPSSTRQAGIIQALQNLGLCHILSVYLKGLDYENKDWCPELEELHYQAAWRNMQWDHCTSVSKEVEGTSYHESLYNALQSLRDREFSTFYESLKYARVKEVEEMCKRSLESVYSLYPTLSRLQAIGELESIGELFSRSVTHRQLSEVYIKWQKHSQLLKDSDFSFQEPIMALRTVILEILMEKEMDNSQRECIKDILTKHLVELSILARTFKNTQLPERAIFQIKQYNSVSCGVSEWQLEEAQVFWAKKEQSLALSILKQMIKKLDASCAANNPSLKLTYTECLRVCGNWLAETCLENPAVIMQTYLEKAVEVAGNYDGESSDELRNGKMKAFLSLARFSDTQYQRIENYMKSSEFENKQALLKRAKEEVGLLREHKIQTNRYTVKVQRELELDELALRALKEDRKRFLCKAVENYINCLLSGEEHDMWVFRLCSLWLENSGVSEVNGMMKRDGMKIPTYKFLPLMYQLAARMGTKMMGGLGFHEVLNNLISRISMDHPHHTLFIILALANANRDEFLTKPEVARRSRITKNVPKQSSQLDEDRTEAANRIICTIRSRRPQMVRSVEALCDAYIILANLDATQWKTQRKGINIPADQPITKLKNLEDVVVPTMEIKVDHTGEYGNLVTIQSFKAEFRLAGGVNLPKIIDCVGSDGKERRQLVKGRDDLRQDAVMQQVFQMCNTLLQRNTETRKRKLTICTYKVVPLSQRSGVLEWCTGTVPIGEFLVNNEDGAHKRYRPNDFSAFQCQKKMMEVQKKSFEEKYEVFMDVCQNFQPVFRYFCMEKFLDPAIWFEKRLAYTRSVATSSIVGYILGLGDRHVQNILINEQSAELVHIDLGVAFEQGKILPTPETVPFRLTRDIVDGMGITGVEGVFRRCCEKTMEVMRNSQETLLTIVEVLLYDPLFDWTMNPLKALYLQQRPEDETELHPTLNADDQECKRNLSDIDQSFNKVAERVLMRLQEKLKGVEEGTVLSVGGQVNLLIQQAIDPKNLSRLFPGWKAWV

| SMILES | IC50 (ATM; [1]) | IC50 (DNA-PK; 20 μM ATP) | IC50 (ATM; [2]) | IC50 (DNA-PK; ATP 20 μM) |
| --- | --- | --- | --- | --- |
| CC(C)NCCOc1ncc(-c2cc3c4c(cnc3cc2F)N(C)C(=O)C42CN(c3ccc4c(c3)OCO4)C2)cc1NS(C)(=O)=O [Example 544, N-(5-(1-(Benzo[d][1,3]dioxol-5-yl)-7′-fluoro-3′-methyl-2′-oxo-2′,3′-dihydrospiro[azetidine-3,1′-pyrrolo[2,3-c]quinolin]-8′-yl)-2-(2-(isopropylamino)ethoxy)pyridin-3-yl)methanesulfonamide] | 1 to 100 nM | < 0.5 nM | – | – |
| CCN(C)S(=O)(=O)Nc1cc(-c2ccc3ncc4c(c3c2)C2(CCC2)C(=O)N4C)cnc1N1CCC(N2CCCCC2)CC1 [Example 212, 8′-(6-{[1,4′-Bipiperidine]-1′-yl}-5-[(ethyl(methyl)sulfamoyl)amino}pyridin-3-yl)-3′-methyl-2′,3′-dihydrospiro[cyclobutane-1,1′-pyrrolo[2,3-c]quinoline]-2′-one] | – | – | 1 to 100 nM | 1 to 100 nM |
| CC(C)N1CC2(C1)C(=O)N(C)c1cnc3cc(F)c(-c4cnc(N5CCC(N6CCCCC6)CC5)c(NS(C)(=O)=O)c4)cc3c12 [Example 486] | 1 to 100 nM | 1 to 100 nM | – | – |
| CC(C)NCCOc1ncc(-c2cc3c(cc2F)ncc2c3[C@]3(C[C@@H](c4ccccc4)C3)C(=O)N2C)cc1NS(C)(=O)=O [Example 415, trans-N-(5-(7′-Fluoro-3′-methyl-2′-oxo-3-phenyl-2′,3′-dihydrospiro[cyclobulane-1,1′-pyrrolo[2,3-c]quinolin]-8′-yl)-2-(2-(isopropylamino)ethoxy)pyridin-3-yl)methanesulfonamide hydrochloride] | 1 to 100 nM | 1 to 100 nM | – | – |
| CCN(C)S(=O)(=O)Nc1cc(-c2ccc3ncc4c(c3c2)C2(CCC2)C(=O)N4C)cnc1OCCCN(C)C [Example 163, 8′-{6-[3-(Dimethylamino)propoxy]5-{[ethyl(methyl)sulfamoyl]amino}pyridin-3-yl}-3′-Methyl-2′,3′-dihydrospiro[cyclobutane-1,1′-pyrrolo[2,3-c]quinoline]-2′-one] | – | – | 1 to 100 nM | 0.5 to 1 nM |
| Cc1cc(S(=O)(=O)Nc2cc(-c3ccc4ncc5c(c4c3)C3(CCC3)C(=O)N5C)cnc2OCCCN(C)C)sn1 [Example 170, N-(2-(3-(Dimethylamino)propoxy)-5-(3′-methyl-2′-oxo-2′,3′-dihydrospiro [cyclobutane-1,1′-pyrrolo[2,3-c]quinolin]-8′-yl)pyridin-3-yl)-3-methylisothiazole-5-sulfonamide hydrochloride] | – | – | 1 to 100 nM | < 0.5 nM |
| CCOC[C@H]1C[C@]2(C1)C(=O)N(C)c1cnc3cc(F)c(-c4cnc(OCCNC(C)C)c(NS(C)(=O)=O)c4)cc3c12 [Example 406, cis-N-(5-(3-(Ethoxymethyl)-7′-fluoro-3′-methyl-2′-oxo-2′,3′-dihydrospiro[cyclobutane-1,1′-pyrrolo[2,3-c]quinolin]-8′-yl)-2-(2-(isopropylamino)ethoxy)pyridin-3-yl)methanesulfonamide] | 1 to 100 nM | 0.5 to 1 nM | – | – |
| CN1C(=O)C2(CCC2)c2c1cnc1ccc(-c3cnc(N4CCC(N5CCCCC5)C4)c(NS(C)(=O)=O)c3)cc21 (racemic) [Example 352, (rac)-N-(5-(3′-Methyl-2′-oxo-2′,3′-dihydrospiro[cyclobulane-1,1′-pyrrolo[2,3-c]quinolin]-8′-yl)-2-(3-(piperidin-1-yl)pyrrolidin-1-yl)pyridin-3-yl)methanesulfonamide hydrochloride] | 1 to 100 nM | 1 to 100 nM | – | – |

Source: patent US12187742B2 (XRAD Therapeutics, Inc., priority 2018, dated 2025)
